Reference: patent US5554752A, “Spirovesamicols” (Regents of the University of Minnesota, priority 1995, dated 1996)
Structures can show the parent of a compound that is named as a salt.

How the values were obtained:
[1] = target: vesamicol receptor; experiment: Vesamicol receptor binding ([3H]vesamicol); details: for Ki: [3H]vesamicol approx. 5 nM, 24 h equilibration, racemates, read-out: Ki (Inhibitory potency of Spirovesamicols)
[2] = test system: vesamicol receptor; details: literature, cited from earlier work
[3] = test system: α-adrenoceptor; details: at higher doses; cited from earlier work
[4] = test system: storage and release of neurotransmitter; details: literature; cited from earlier work
[5] = test system: cholinergic neurotransmission; details: Brittain et al, 1969; cited from earlier work
[6] = test system: cholinergic neurotransmission; experiment: Pharmacological Activity of Spirovesamicols in Male Swiss Webster Mice (anticholinergic signs and lethality, intraperitoneal); type: in vivo, mouse; details: i.p.
Protocol: In vivo anticholinergic activity was evaluated in Swiss Webster mice. Blockade of cholinergic neurotransmission (or anticholinergic activity) was manifested in a rapidly developing respiratory distress, spasms and paralysis. At lethal doses these symptoms were followed by death within 10-20 min. As evident in Tables 1 and 2, the representative compounds tested were lethal at doses as low as 10 umol/Kg.
Rats and mice were injected intraperitoneally with solutions of the compounds in aqueous EtOH (or aqueous DMSO). […] At lethal doses, death generally occurred within 20 minutes following the injection. LD20 lethal dose for 20% of animals tested; LD40, lethal dose for 40%; LD60, lethal dose for 60%; L100, lethal dose for all animals; NR, no visible pharmacologic reaction; S, sluggishness and reduced locomotor activity; +, mild symptoms of anticholinergic activity; ++, severe signs of anticholinergic activity.

[7] = test system: cholinergic neurotransmission; experiment: Pharmacological Activity of Spirovesamicols in Male Wistar Rats (anticholinergic signs and lethality, intraperitoneal); type: in vivo, rat; details: i.p.
Protocol: Rats and mice were injected intraperitoneally with solutions of the compounds in aqueous EtOH (or aqueous DMSO). […] LD20 lethal dose for 20% of animals tested; LD40, lethal dose for 40%; LD60, lethal dose for 60%; L100, lethal dose for all animals; NR, no visible pharmacologic reaction; S, sluggishness and reduced locomotor activity; +, mild symptoms of anticholinergic activity; ++, severe signs of anticholinergic activity.

## 1'(4-Hydroxy-1-(2-fluorobenzyl)piperidin-3-yl)-spiro[1H-indene-1,4'-piperidine]dihydrochloride [Compound 11f]
[1]
  Ki: 248 ± 25 pM

## O[C@@H]1CCCC[C@H]1N1CCC(c2ccc(Cl)cc2)CC1 (relative stereo) [Compound 1b]
[2]
  potency/activity relative to vesamicol, in words: between two and eight times less potent than vesamicol

## O=[N+]([O-])c1ccc(C2CCN([C@@H]3CCCC[C@H]3O)CC2)cc1 (relative stereo) [Compound 1c]
[2]
  potency/activity relative to vesamicol, in words: between two and eight times less potent than vesamicol

## Nc1cccc2c1C[C@@H](N1CCC(c3ccccc3)CC1)[C@H](O)C2 (relative stereo) [Compound 2b]
[2]
  potency/activity relative to vesamicol, in words: a potent VR ligand

## O[C@@H]1CCCC[C@H]1N1CCc2ccccc2C1 (relative stereo) [Compound 6a]
[2]; less active than vesamicol
  loss of activity relative to vesamicol: 125 times

## O=C1NCN(c2ccccc2)C12CCN([C@@H]1CCCC[C@H]1O)CC2 (relative stereo) [Compound 6b]
[2]
  potency/activity relative to vesamicol, in words: inactive

## O[C@@H]1CCCC[C@H]1N1CCC(c2ccccc2)CC1 [(-)-vesamicol, reference compound]
[1]; conditions of this assay, read-out: dissociation constant (kd)
  Kd: 1000 pM

## OC1CCCCC1N1CCC(c2ccccc2)CC1 (centres unmarked) [Compound 1, 2-(4-phenylpiperidino)cyclohexanol]
[3]
  α-adrenoceptor activity: exhibits α-adrenoceptor activity at higher doses
[1]
  Ki: 1000 pM
[4]
  effect on storage and release of neurotransmitter: selectively inhibits the storage and release of neurotransmitter
  effect on synthesis of neurotransmitter: without directly affecting the synthesis of this neurotransmitter
[5]
  effects in laboratory animals: induces respiratory paralysis, spasms and death

## OC(Cc1ccc(Br)cc1)CN1CCC(c2ccccc2)CC1 (centres unmarked) [Compound 2a]
[2]
  potency/activity relative to vesamicol, in words: equipotent with vesamicol

## COc1ccc2c3c1OC1C(O)C=CC4C(C2)N([C@@H]2CCCC[C@H]2O)CCC341 (some centres unmarked) [Compound 7a]
[2]
  potency/activity relative to vesamicol, in words: inactive

## COc1ccc2c3c1OC1C(=O)CCC4C(C2)N([C@@H]2CCCC[C@H]2O)CCC314 (some centres unmarked) [Compound 7b]
[2]
  potency/activity relative to vesamicol, in words: inactive

## OC1CCCCC1N1CCC2(C=Cc3ccccc32)CC1 (centres unmarked) [Compound 11a, 1'-(2-Hydroxycylohex-1-yl)spiro[1H-indene-1,4'-piperidine]Hydrochloride]
[6]; 12.5 umol/Kg
  Pharmacological Activity: +
[6]; 25 umol/Kg
  Pharmacological Activity: LD40 (lethal dose for 40%)
[6]; 50 umol/Kg
  Pharmacological Activity: LD60 (lethal dose for 60%)
[6]; 100 umol/Kg
  Pharmacological Activity: LD100
[7]; 10 umol/Kg
  Pharmacological Activity: +
[7]; 22.5 umol/Kg
  Pharmacological Activity: ++
[7]; 45 umol/Kg
  Pharmacological Activity: LD100
[1]
  Ki: 622 ± 82 pM

## OC1Cc2ccccc2CC1N1CCC2(C=Cc3ccccc32)CC1 (centres unmarked) [Compound 11b, 1'-(2-Hydroxy-1,2,3,4-tetrahydronaphth-3-yl)-spiro[1H-indene-1,4'-piperidine]Hydrochloride]
[6]; 1.25 umol/Kg
  Pharmacological Activity: +
[6]; 2.5 umol/Kg
  Pharmacological Activity: LD20 (lethal dose for 20% of animals tested)
[6]; 5.0 umol/Kg
  Pharmacological Activity: LD20 (lethal dose for 20% of animals tested)
[6]; 10 umol/Kg
  Pharmacological Activity: LD40 (lethal dose for 40%)
[6]; 20 umol/Kg
  Pharmacological Activity: LD60 (lethal dose for 60%)
[6]; 40 umol/Kg
  Pharmacological Activity: LD100
[7]; 1 umol/Kg
  Pharmacological Activity: ++
[7]; 5 umol/Kg
  Pharmacological Activity: LD100
[7]; 10 umol/Kg
  Pharmacological Activity: LD100
[7]; 20 umol/Kg
  Pharmacological Activity: LD100
[1]
  Ki: 121 ± 32 pM

## OC1CCN(Cc2ccccc2I)CC1N1CCC2(C=Cc3ccccc32)CC1 (centres unmarked) [Compound 11c, 1'-(4-Hydroxy1-(2-iodobenzyl)piperidin-3-yl)-spiro[1H-indene-1,4'-piperidine]dihydrochloride]
[1]
  Ki: 798 ± 187 pM

## OC1CCN(Cc2cccc(I)c2)CC1N1CCC2(C=Cc3ccccc32)CC1 (centres unmarked) [Compound 11d, 1'-(4-Hydroxy1-(3-iodobenzyl)piperidin-3-yl)-spiro[1H-indene-1,4'-piperidine]dihydrochloride]
[1]
  Ki: 264 ± 78 pM

## OC1CCCCC1N1CCC2(CCCc3ccccc32)CC1 (centres unmarked) [Compound 13a, 3,4-Dihydro-1'-(2-Hydroxycyclohex-1-yl)-spiro[naphthalene-1,4'-piperidine]hydrochloride]
[1]
  Ki: 24200 ± 5710 pM

## OC1Cc2ccccc2CC1N1CCC2(CCCc3ccccc32)CC1 (centres unmarked) [Compound 13b, 3,4-Dihydro-1'-(2-hydroxy-1,2,3,4-tetrahydronaphth-3-yl)-spiro[naphthalene-1(2H), 4'-piperidine]hydrochloride]
[1]
  Ki: 18400 ± 14000 pM

## OC1CCN(Cc2ccccc2I)CC1N1CCC2(CCCc3ccccc32)CC1 (centres unmarked) [Compound 13c, 1'-(1-(2-Iodobenzyl)-4-hydroxypiperidin-3-yl)-3,4-dihydrospiro[naphthalene-1(2H),4'-piperidine]]
[1]
  Ki: 5800 ± 1700 pM

## OC1CCN(Cc2cccc(I)c2)CC1N1CCC2(CCCc3ccccc32)CC1 (centres unmarked) [Compound 13d, 1'-(1-(3-Iodobenzyl)-4-hydroxypiperidin-3-yl)-3,4-dihydrospiro[naphthalene-1(2H),4'-piperidine]]
[7]; 50 umol/Kg
  Pharmacological Activity: S
[7]; 125 umol/Kg
  Pharmacological Activity: LD100
[1]
  Ki: 82 ± 20 pM
[1]; compared with vesamicol / (-)-vesamicol
  potency relative to vesamicol, in words: at least ten times more potent than (-)-vesamicol

## OC1CCN(Cc2ccc(F)cc2)CC1N1CCC2(CCCc3ccccc32)CC1 (centres unmarked) [Compound 13f, 1'-(1-(4-fluorobenzyl)-4-hydroxypiperidin-3-yl)-3,4-dihydrospiro[naphthalene-1(2H),4'-piperidine]]
[1]
  Ki: 2600 ± 900 pM

## OC1Cc2ccccc2CC1N1CCC2(CC1)C(Br)=Cc1ccccc12 (centres unmarked) [Compound 14, 1'-(2-Hydroxy-1,2,3,4-tetrahydronaphth-3-yl)-spiro[2-bromo-1H-indene-1,4'-piperidine]Hydrochloride]
[7]; 12.5 umol/Kg
  Pharmacological Activity: +
[7]; 25 umol/Kg
  Pharmacological Activity: LD100
[7]; 50 umol/Kg
  Pharmacological Activity: LD100
[1]; 11a vs 14
  increase in potency on bromine substitution at C2: 20 fold
[1]
  Ki: 38 ± 6 pM

## OC1Cc2ccccc2CC1N1CCC2(C=Cc3c(Br)cccc32)CC1 (centres unmarked) [Compound 15, 1'-(2-Hydroxy-1,2,3,4-tetrahydronaphth-3-yl)-spiro[4-bromo-1H-indene-1,4'-piperidine]Hydrochloride]
[7]; 50 umol/Kg
  Pharmacological Activity: +
[1]
  Ki: 212 ± 63 pM

## OC1Cc2ccccc2CC1N1CCC2(C=Cc3cc(Br)ccc32)CC1 (centres unmarked) [Compound 16, 1'-(2-Hydroxy-1,2,3,4-tetrahydronaphth-3-yl)-spiro[5-bromo-1H-indene-1,4'-piperidine]Hydrochloride]
[1]
  Ki: 1400 ± 300 pM

## OC1Cc2ccccc2CC1N1CCC2(C=Cc3ccc(Br)cc32)CC1 (centres unmarked) [Compound 17, 1'-(2-Hydroxy-1,2,3,4-tetrahydronaphth-3-yl)spiro[6-bromo-1H-indene-1,4'-piperidine]Hydrochloride]
[1]
  Ki: 271 ± 56 pM
[1]; in words
  effect of bromine on potency: slight reduction in potency

## OC1CCN(Cc2cccc(I)c2)CC1N1CCC(c2ccccc2)CC1 (centres unmarked) [MIBT]
[2]
  potency/activity relative to vesamicol, in words: potent ligands

## OC1CCNCC1N1CCC(c2ccccc2)CC1 (centres unmarked) [trozamicol]
[2]
  potency/activity relative to vesamicol, in words: poor ligand for vesamicol receptor
